Converted amounts (≈) assume the structure as drawn. Marks after values point to notes of the source that are not given here. Non-standard residues stand in square brackets, D forms with d. Residues, ends and D or L forms follow the SMILES beside them. d2Nal = N[C@H](Cc1ccc2ccccc2c1)C(=O)O; d(hLeu) = CC(C)CC[C@@H](N)C(=O)O
Experiments:
[1] = test system: Staphylococcus aureus (NRS 384); experiment: microbe, parasite or virus in culture; format: cell-based; conditions: NRS 384
Summary of the method: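 CLSI broth microdilution with serial twofold dilutions gave MICs against S. aureus NRS 384, with 5 parallel replicates. Levofloxacin and the AMP Cbf-K16 served as positive controls.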

[2] = test system: Bacillus subtilis ATCC 6633; format: cell-based
Summary of the method: (§1)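 Peptides were tested against clinical bacterial and fungal strains by CLSI microdilution using a serial twofold dilution series, and the MIC was taken as the value. Replicates: 5, run in parallel.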

[3] = test system: Candida albicans ATCC MYA-2876; format: cell-based
Summary of the method: as §1

[4] = test system: Candida glabrata ATCC 15126; format: cell-based
Summary of the method: as §1

Candida krusei ATCC 6258 = format: cell-based
Summary of the method: as §1

[5] = test system: Candida tropicalis ATCC 750; format: cell-based
Summary of the method: as §1

Candida utilis ATCC 9950 = format: cell-based
Summary of the method: as §1

[6] = test system: Corynebacterium ATCC 7715; format: cell-based
Summary of the method: as §1

Enterococcus ATCC 29212 = format: cell-based
Summary of the method: as §1

[7] = test system: Escherichia coli ATCC 25922; format: cell-based
Summary of the method: as §1

[8] = test system: Klebsiella pneumoniae ATCC 700603; format: cell-based
Summary of the method: as §1

[9] = test system: Pseudomonas aeruginosa ATCC 27853; format: cell-based
Summary of the method: as §1

[10] = test system: Salmonella typhimurium ATCC 14028; format: cell-based
Summary of the method: as §1

[11] = test system: Serratia marcescens ATCC 29021; format: cell-based
Summary of the method: as §1

[12] = test system: Staphylococcus aureus ATCC 25923; format: cell-based
Summary of the method: as §1

[13] = test system: Trichophyton ATCC MYA-4438; format: cell-based
Summary of the method: as §1

[14] = test system: Staphylococcus aureus (NRS 384); conditions: NRS 384, 3 h
Protocol: Trypsin (250 U/mg, pH=8.0) and AMPs (LV-1 to LV-30) were mixed in a ratio of 1:10 (w/w) and added to a reaction buffer (0.2 M sodium phosphate, 1 mM CaCl2), pH 7.5), and then incubated at 37° C. for 3 h.

[15] = test system: Pseudomonas aeruginosa ATCC 27853; experiment: Injectable formulations on mice infected with peritonitis; format: in vivo, ICR mice; conditions: 1 mg/kg via tail vein, twice a day for 3 days, n = 10; for Average survival times (Days): observed for 14 d
Summary of the method: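 ICR mice of both sexes (10 per group) infected intraperitoneally with 0.2 mL P. aeruginosa ATCC 27853 at 1×10^9 CFU/mL. Injectable formulations dosed by body weight via tail vein twice daily for 3 days; deaths and survival time recorded over 14 d.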

[16] = test system: Escherichia coli ATCC 25922; experiment: Oral formulations on mice with systemic bacterial infection; format: in vivo, ICR mice; conditions: 1 mg/kg gavage, three times a day for 7 days, n = 10; for Average survival times (Days): observed for 14 d
Summary of the method: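 ICR mice of both sexes, 10 per group, infected i.p. with 0.2 mL E. coli ATCC 25922 at 1×10^7 CFU/mL. Compounds gavaged by body weight immediately after infection, three times daily for 7 days; deaths and survival time recorded over 14 d observation.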

SMILES	MIC against Staphylococcus aureus (NRS 384) [1] [µg/mL]	MIC Bacillus subtilis ATCC 6633 [2] [µg/mL]	MIC Candida albicans ATCC MYA-2876 [3] [µg/mL]	MIC Candida glabrata ATCC 15126 [4] [µg/mL]	MIC Candida krusei ATCC 6258 (Candida krusei ATCC 6258) [µg/mL]	MIC Candida tropicalis ATCC 750 [5] [µg/mL]	MIC Candida utilis ATCC 9950 (Candida utilis ATCC 9950) [µg/mL]	MIC Corynebacterium ATCC 7715 [6] [µg/mL]	MIC Enterococcus ATCC 29212 (Enterococcus ATCC 29212) [µg/mL]	MIC Escherichia coli ATCC 25922 [7] [µg/mL]	MIC Klebsiella pneumoniae ATCC 700603 [8] [µg/mL]	MIC Pseudomonas aeruginosa ATCC 27853 [9] [µg/mL]	MIC Salmonella typhimurium ATCC 14028 [10] [µg/mL]	MIC Serratia marcescens ATCC 29021 [11] [µg/mL]	MIC Staphylococcus aureus ATCC 25923 [12] [µg/mL]	MIC Trichophyton ATCC MYA-4438 [13] [µg/mL]	Trypsin MIC [14] [µg/mL]	Number of mice that died on each day after infection: day 1 [15] [Mouse]	Number of mice that died on each day after infection: day 2 [15] [Mouse]	Number of mice that died on each day after infection: day 3 [15] [Mouse]	further results
CC(=O)N[C@H](CCCNC(=N)N)C(=O)N[C@H](CCCCN)C(=O)N[C@H](CCC(C)C)C(=O)N[C@H](CCC(C)C)C(=O)N[C@H](Cc1ccc2ccccc2c1)C(=O)N[C@H](CCCNC(=N)N)C(=O)N[C@H](CCC(C)C)C(=O)N[C@H](CCCCN)C(=O)N[C@H](Cc1ccc2ccccc2c1)C(=O)N[C@H](CCCNC(=N)N)C(=O)N[C@H](CCCCN)C(N)=O [LV-14] (Ac-[dR][dK][d(hLeu)][d(hLeu)][d2Nal][dR][d(hLeu)][dK][d2Nal][dR][dK]-NH2)	1 (≈ 0.592 µM)	2 (≈ 1.18 µM)	16 (≈ 9.48 µM)	4 (≈ 2.37 µM)	16 (≈ 9.48 µM)	8 (≈ 4.74 µM)	4 (≈ 2.37 µM)	8 (≈ 4.74 µM)	4 (≈ 2.37 µM)	2 (≈ 1.18 µM)	4 (≈ 2.37 µM)	4 (≈ 2.37 µM)	4 (≈ 2.37 µM)	8 (≈ 4.74 µM)	2 (≈ 1.18 µM)	8 (≈ 4.74 µM)	1	1	2	0	Number of mice that died on each day after infection: day 4 [15]: 1 Mouse; Number of mice that died on each day after infection: day 5 [15]: 1 Mouse; Average survival times (Days) [15]: 8.4** Days; Number of mice that died on each day after infection: day 4 [16]: 1 Mouse; Number of mice that died on each day after infection: day 5 [16]: 2 Mouse; Number of mice that died on each day after infection: day 6 [16]: 1 Mouse; Number of mice that died on each day after infection: day 7 [16]: 0 Mouse; Number of mice that died on each day after infection: day 8 [16]: 1 Mouse; Average survival times (Days) [16]: 9.8** Days
CC(=O)N[C@H](CCCCN)C(=O)N[C@H](CCCNC(=N)N)C(=O)N[C@H](CC(C)C)C(=O)N[C@H](CC(C)C)C(=O)N[C@H](Cc1ccc2ccccc2c1)C(=O)N[C@H](CCCCN)C(=O)N[C@H](CC(C)C)C(=O)N[C@H](CCCCN)C(=O)N[C@H](Cc1ccc2ccccc2c1)C(=O)N[C@H](CCCCN)C(=O)N[C@H](CCCNC(=N)N)C(N)=O [LV-23] (Ac-[dK][dR][dL][dL][d2Nal][dK][dL][dK][d2Nal][dK][dR]-NH2)	1 (≈ 0.618 µM)	4 (≈ 2.47 µM)	16 (≈ 9.89 µM)	8 (≈ 4.94 µM)	4 (≈ 2.47 µM)	4 (≈ 2.47 µM)	8 (≈ 4.94 µM)	4 (≈ 2.47 µM)	8 (≈ 4.94 µM)	2 (≈ 1.24 µM)	4 (≈ 2.47 µM)	2 (≈ 1.24 µM)	2 (≈ 1.24 µM)	8 (≈ 4.94 µM)	1 (≈ 0.618 µM)	16 (≈ 9.89 µM)	1	1	1	0	Number of mice that died on each day after infection: day 4 [15]: 2 Mouse; Number of mice that died on each day after infection: day 5 [15]: 0 Mouse; Average survival times (Days) [15]: 9.5*** Days; Number of mice that died on each day after infection: day 4 [16]: 2 Mouse; Number of mice that died on each day after infection: day 5 [16]: 1 Mouse; Number of mice that died on each day after infection: day 6 [16]: 1 Mouse; Number of mice that died on each day after infection: day 7 [16]: 0 Mouse; Number of mice that died on each day after infection: day 8 [16]: 1 Mouse; Average survival times (Days) [16]: 9.7** Days
